Active and inactive are the calls of the source. No cut-off for these calls is given here.

The subject of assay [1] is Calf thymus DNA. Kind of assay: Binding affinity to calf thymus duplex DNA assessed as induction of red shift in soret peak at 50 uM in pH 8.9 phosphate buffer by UV-vis spectrophotometric analysis. The format is nucleic-acid assay. Conditions: Bos taurus.
Assay [2] concerns Calf thymus DNA. Kind of assay: Binding affinity to calf thymus duplex DNA assessed as induction of ellipticity at 25 to 200 uM in pH 8.9 phosphate buffer by circular dichroism method. The class given is nucleic-acid assay. Conditions: Bos taurus. (In general: Circular dichroism is widely used to follow secondary structure.)
Assay [3] deals with Calf thymus DNA. Kind of assay: Binding affinity to calf thymus duplex DNA assessed as induction of red shift in soret peak at 50 uM in pH 5.4 phosphate buffer by UV-vis spectrophotometric analysis. The format is nucleic-acid assay. The conditions noted are these: Bos taurus.
Assay [4] deals with Calf thymus DNA. Kind of assay: Binding affinity to calf thymus duplex DNA assessed as red shift in soret peak at 50 uM in pH 7 phosphate buffer by UV-vis spectrophotometric analysis. The format is nucleic-acid assay. Conditions: Bos taurus.
For assay [5], the system named is Calf thymus DNA. The assay is described as follows: Binding affinity to calf thymus duplex DNA assessed as induction of hyperchromic shift at 257 nanometer at 50 uM in pH 7 phosphate buffer by UV-vis spectrophotometric analysis. The class given is nucleic-acid assay. The conditions noted are these: Bos taurus.
Assay [6] is filed under the species Bos taurus. Kind of assay: Binding affinity to calf thymus GC-rich duplex DNA assessed as induction of ellipticity at 25 to 200 uM in pH 7 phosphate buffer by circular dichroism method.
In assay [7] the test system is Calf thymus DNA. The assay is described as follows: Binding affinity to calf thymus duplex DNA assessed as melting temperature at 1 mM by differential scanning calorimetry (reference value: 51 degC). The class given is nucleic-acid assay. Conditions: Bos taurus. A general note: DSC measures the heat that a sample takes up or gives off during a temperature scan.
The test system of assay [8] is Calf thymus DNA. The assay is described as follows: Binding affinity to calf thymus duplex DNA assessed as induction of ellipticity at 25 to 200 uM in pH 7 phosphate buffer in presence of 0.1 M NaCl by circular dichroism method. The format is nucleic-acid assay. The conditions noted are these: Bos taurus.
Assay [9] relates to Calf thymus DNA. The assay is described as follows: Binding affinity to calf thymus duplex DNA assessed as induction of hyperchromicity at 280 nanometer at 25 to 200 uM in pH 7 phosphate buffer by circular dichroism method. The class given is nucleic-acid assay. The conditions noted are these: Bos taurus.
Assay [10] deals with Calf thymus DNA. The assay is described as follows: Binding affinity to calf thymus duplex DNA assessed as change in melting temperature at 50 uM in pH 7 phosphate buffer by UV-vis spectrophotometric analysis. The format is nucleic-acid assay. The conditions noted are these: Bos taurus.
Assay [11] relates to Calf thymus DNA. The assay is described as follows: Binding affinity to calf thymus duplex DNA assessed as increase in melting temperature by differential scanning calorimetry. The format is nucleic-acid assay. The conditions noted are these: Bos taurus.
Assay [12] deals with Calf thymus DNA. Kind of assay: Binding affinity to calf thymus duplex DNA assessed as induction of hyperchromic shift at 257 nanometer at 50 uM in pH 5.4 phosphate buffer by UV-vis spectrophotometric analysis. The format is nucleic-acid assay. The conditions noted are these: Bos taurus.
For assay [13], the system named is Calf thymus DNA. Kind of assay: Binding affinity to calf thymus duplex DNA assessed as melting temperature at 5 mM by differential scanning calorimetry (reference value: 51 degC). The format is nucleic-acid assay. The conditions noted are these: Bos taurus.
Assay [14] deals with Calf thymus DNA. The assay is described as follows: Binding affinity to calf thymus duplex DNA assessed as induction of red shift at 280 nanometer at 25 to 200 uM in pH 7 phosphate buffer by circular dichroism method. The class given is nucleic-acid assay. The conditions noted are these: Bos taurus.
Assay [15] is filed under the species Bos taurus. The assay is described as follows: Binding affinity to calf thymus GC-rich duplex DNA assessed as induction of hyperchromicity at 25 to 200 uM in pH 7 phosphate buffer by circular dichroism method.
The species named for assay [16] is Bos taurus. Kind of assay: Binding affinity to calf thymus AT-rich duplex DNA assessed as induction of ellipticity at 25 to 200 uM in pH 7 phosphate buffer by circular dichroism method.
In assay [17] the test system is Calf thymus DNA. The assay is described as follows: Binding affinity to calf thymus duplex DNA assessed as induction of ellipticity at 349 nanometer at 25 to 200 uM in pH 7 phosphate buffer by circular dichroism method. The format is nucleic-acid assay. The conditions noted are these: Bos taurus.
In assay [18] the test system is Calf thymus DNA. Kind of assay: Binding affinity to calf thymus duplex DNA assessed as induction of hyperchromic shift at 257 nanometer at 50 uM in pH 8.9 phosphate buffer by UV-vis spectrophotometric analysis. Conditions: Bos taurus. The format is nucleic-acid assay.
The subject of assay [19] is Calf thymus DNA. The assay is described as follows: Binding affinity to calf thymus duplex DNA assessed as induction of ellipticity at 25 to 200 uM in pH 5.4 phosphate buffer by circular dichroism method. The class given is nucleic-acid assay. The conditions noted are these: Bos taurus.
The species entered for assay [20] is Bos taurus. Kind of assay: Binding affinity to calf thymus AT-rich duplex DNA assessed as induction of hyperchromicity at 25 to 200 uM in pH 7 phosphate buffer by circular dichroism method.
The test system of assay [21] is Calf thymus DNA. The assay is described as follows: Binding affinity to calf thymus duplex DNA assessed as induction of ellipticity at 2.5 to 63 uM in pH 7 phosphate buffer by circular dichroism method. The class given is nucleic-acid assay. The conditions noted are these: Bos taurus.
Assay [22] concerns Calf thymus DNA. Kind of assay: Binding affinity to calf thymus duplex DNA assessed as melting temperature at 0.5 mM by differential scanning calorimetry (reference value: 51 degC). The format is nucleic-acid assay. The conditions noted are these: Bos taurus.
For assay [23], the system named is Calf thymus DNA. The assay is described as follows: Binding affinity to calf thymus duplex DNA assessed as change in melting temperature at 2.5 uM in pH 7 phosphate buffer by UV-vis spectrophotometric analysis. The format is nucleic-acid assay. Conditions: Bos taurus.
Assay [24] deals with Calf thymus DNA. Kind of assay: Binding affinity to calf thymus duplex DNA assessed as induction of red shift in soret peak at 75 uM in pH 7 phosphate buffer by UV-vis spectrophotometric analysis. Conditions: Bos taurus. The class given is nucleic-acid assay.
Assay [25] concerns Calf thymus DNA. Kind of assay: Binding affinity to calf thymus duplex DNA assessed as induction of ellipticity at 350 nanometer at 25 to 200 uM in pH 7 phosphate buffer by circular dichroism method. The class given is nucleic-acid assay. Conditions: Bos taurus.
The subject of assay [26] is Calf thymus DNA. The assay is described as follows: Binding affinity to calf thymus duplex DNA assessed as induction of hyperchromic shift at 257 nanometer at 75 uM in pH 7 phosphate buffer by UV-vis spectrophotometric analysis. The conditions noted are these: Bos taurus. The format is nucleic-acid assay.
Assay [27] concerns Calf thymus DNA. The assay is described as follows: Binding affinity to calf thymus duplex DNA assessed as induction of hyperchromicity at 25 to 200 uM in pH 7 phosphate buffer by circular dichroism method. The conditions noted are these: Bos taurus. The class given is nucleic-acid assay.

As to `c1ccc2c(-c3nccc4c3[nH]c3ccccc34)c[nH]c2c1`, the result in assay [1], in [3], in assay [5], in [8], in assay [9] and in [12] was Active. Besides, the result in [14], in [17], in assay [18] and in [19] was Active. Besides, the outcome in [2], in [6], in assay [15], in [16] and in [20] was inactive. Moreover, the Activity in assay [4] was 20 nm; in assay [11] it was “Dose-dependent effect”. Also, the figures for the Tm in assay [7] and in [13] were 56 to 67 °C and 67 °C, respectively. Further, the ΔTm (as a rule, the change in melting temperature against a reference sample) in assay [10] is 2.3 °C.
Consider `CC[n+]1c(-c2ccccc2)c2cc(N)ccc2c2ccc(N)cc21`, for which the outcome in assay [21] was Active. Besides, in assay [22], the Tm (as a rule, the temperature at which the thermal transition is half complete) came out at 75 °C. In addition, the ΔTm in [23] was found to be 8.9 °C.
In the case of `c1ccc2c(c1)[nH]c1cnccc12`, the result in assay [24] and in assay [26] was Active. Besides, the outcome in [25] was inactive.
As to `C[n+]1ccc2c([nH]c3ccccc32)c1-c1c[nH]c2ccccc12`, the result in assay [25] and in [27] was inactive.
For `Cc1nccc2c1[nH]c1ccccc12`, the result in assay [4] and in assay [5] was Active. Moreover, the outcome in assay [25] was inactive. The Tm in assay [22] was determined as 65 °C. Further, the ΔTm in [10] was determined as 4 °C.

(Values after ChEMBL document CHEMBL4431382, “DNA-binding studies of the natural β-carboline eudistomin U” (Bioorg Med Chem Lett, 2016).)
